Data published in the kinase profiling compilation of Christmann-Franck et al. (2016).
Where “and” joins values, the source holds several entries; their conditions need not be identical. Equal values may be shown once.

Columns and labels:
Test in all cases: Caliper, Mobility shift assay off-chip
[1] = molecular target: BRSK2 (human) (UniProt Q8IWQ3)
[2] = molecular target: WNK1 (human) (UniProt Q9H4A3)
[3] = molecular target: RET (human) (UniProt P07949)
[4] = molecular target: IRAK4 (human) (UniProt Q9NWZ3)
[5] = molecular target: MST1R (human) (UniProt Q04912)
[6] = molecular target: TSSK3 (human) (UniProt Q96PN8)
[7] = molecular target: PRKX (human) (UniProt P51817)
[8] = molecular target: JAK1 JH1 JH2 (human) (UniProt P23458)
[9] = molecular target: FLT3 (human) (UniProt P36888)
[10] = molecular target: MERTK (human) (UniProt Q12866)
[11] = molecular target: PRKCQ (human) (UniProt Q04759)
[12] = molecular target: SPHK2 (human) (UniProt Q9NRA0)
[13] = molecular target: EPHA2 (human) (UniProt P29317)
[14] = molecular target: CDK2 (human) (UniProt P24941)
[15] = molecular target: FYN (human) (UniProt P06241)
[16] = molecular target: HCK (human) (UniProt P08631)
[17] = molecular target: MARK1 (human) (UniProt Q9P0L2)
[18] = molecular target: PAK3 (human) (UniProt O75914)
[19] = molecular target: BRSK1 (human) (UniProt Q8TDC3)
[20] = molecular target: BMX (human) (UniProt P51813)
[21] = molecular target: ITK (human) (UniProt Q08881)
[22] = molecular target: GSK3B (human) (UniProt P49841)
[23] = molecular target: INSR (human) (UniProt P06213)
[24] = molecular target: GSG2 (human) (UniProt Q8TF76)
[25] = molecular target: SYK (human) (UniProt P43405)
[26] = molecular target: CSNK2A1 (human) (UniProt P68400)
[27] = molecular target: ABL2 (human) (UniProt P42684)
[28] = molecular target: PIK3CA PIK3R1 (human) (UniProt P27986+P42336)
[29] = molecular target: SGK3 (human) (UniProt Q96BR1)
[30] = molecular target: AKT2 (human) (UniProt P31751)
[31] = molecular target: PRKD3 (human) (UniProt O94806)
[32] = molecular target: IGF1R (human) (UniProt P08069)
[33] = molecular target: MET (human) (UniProt P08581)
[34] = molecular target: LTK (human) (UniProt P29376)

Sequence of FLT3 (human) (P36888 whole entry, looked up): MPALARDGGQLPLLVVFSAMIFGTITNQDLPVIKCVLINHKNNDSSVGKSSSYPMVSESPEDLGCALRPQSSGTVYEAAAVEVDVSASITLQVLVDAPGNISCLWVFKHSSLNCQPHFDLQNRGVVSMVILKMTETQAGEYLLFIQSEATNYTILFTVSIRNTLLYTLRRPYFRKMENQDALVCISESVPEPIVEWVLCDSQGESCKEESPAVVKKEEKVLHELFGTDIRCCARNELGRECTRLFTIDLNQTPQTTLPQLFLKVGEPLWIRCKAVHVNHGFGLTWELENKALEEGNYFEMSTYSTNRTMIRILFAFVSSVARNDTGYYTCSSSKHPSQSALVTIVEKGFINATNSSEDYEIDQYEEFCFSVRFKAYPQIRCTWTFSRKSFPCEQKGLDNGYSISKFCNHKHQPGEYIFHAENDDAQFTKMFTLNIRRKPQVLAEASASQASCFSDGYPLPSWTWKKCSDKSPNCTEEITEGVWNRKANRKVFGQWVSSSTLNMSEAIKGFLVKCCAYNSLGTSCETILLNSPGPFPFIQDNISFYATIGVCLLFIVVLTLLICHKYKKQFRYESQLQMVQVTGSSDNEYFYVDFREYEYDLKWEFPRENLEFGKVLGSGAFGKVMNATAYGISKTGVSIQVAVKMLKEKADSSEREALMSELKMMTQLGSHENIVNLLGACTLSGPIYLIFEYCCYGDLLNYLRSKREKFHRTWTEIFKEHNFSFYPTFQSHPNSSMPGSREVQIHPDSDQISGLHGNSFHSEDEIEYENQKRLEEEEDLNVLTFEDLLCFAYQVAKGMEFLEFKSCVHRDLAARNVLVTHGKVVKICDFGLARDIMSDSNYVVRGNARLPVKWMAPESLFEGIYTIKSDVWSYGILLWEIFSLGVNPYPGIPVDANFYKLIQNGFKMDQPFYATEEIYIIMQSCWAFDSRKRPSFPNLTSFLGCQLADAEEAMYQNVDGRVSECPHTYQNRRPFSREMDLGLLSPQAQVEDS
Sequence of JAK1 JH1 JH2 (human) (P23458 whole entry, looked up): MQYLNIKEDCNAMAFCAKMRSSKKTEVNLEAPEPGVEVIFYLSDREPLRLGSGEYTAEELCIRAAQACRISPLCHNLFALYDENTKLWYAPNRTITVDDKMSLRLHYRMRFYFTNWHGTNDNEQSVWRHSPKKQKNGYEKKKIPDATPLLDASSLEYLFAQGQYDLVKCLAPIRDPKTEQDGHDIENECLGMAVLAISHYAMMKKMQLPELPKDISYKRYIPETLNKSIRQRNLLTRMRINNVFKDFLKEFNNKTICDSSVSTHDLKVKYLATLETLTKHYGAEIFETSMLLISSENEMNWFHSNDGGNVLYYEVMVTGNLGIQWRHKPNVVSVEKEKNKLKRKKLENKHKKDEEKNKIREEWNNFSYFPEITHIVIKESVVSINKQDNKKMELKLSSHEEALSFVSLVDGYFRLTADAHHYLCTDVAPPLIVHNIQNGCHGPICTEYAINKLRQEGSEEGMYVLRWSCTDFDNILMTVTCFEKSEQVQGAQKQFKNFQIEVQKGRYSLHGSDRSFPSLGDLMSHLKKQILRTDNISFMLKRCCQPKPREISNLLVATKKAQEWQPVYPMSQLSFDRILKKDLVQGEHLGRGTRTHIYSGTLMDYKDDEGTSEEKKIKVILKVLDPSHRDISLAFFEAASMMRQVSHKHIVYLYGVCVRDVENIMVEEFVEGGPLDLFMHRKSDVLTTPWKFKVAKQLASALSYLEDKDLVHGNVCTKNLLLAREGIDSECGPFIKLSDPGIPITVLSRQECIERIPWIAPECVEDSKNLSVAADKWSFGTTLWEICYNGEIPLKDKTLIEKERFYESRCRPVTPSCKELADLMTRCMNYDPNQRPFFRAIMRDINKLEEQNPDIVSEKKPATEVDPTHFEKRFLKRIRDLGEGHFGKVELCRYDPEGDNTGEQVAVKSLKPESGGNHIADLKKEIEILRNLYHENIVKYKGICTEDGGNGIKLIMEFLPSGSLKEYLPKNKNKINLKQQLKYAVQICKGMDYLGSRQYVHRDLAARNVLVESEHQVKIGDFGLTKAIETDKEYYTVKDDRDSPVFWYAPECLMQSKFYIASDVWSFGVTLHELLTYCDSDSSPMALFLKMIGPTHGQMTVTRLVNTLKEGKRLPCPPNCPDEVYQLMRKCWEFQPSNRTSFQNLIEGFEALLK
Sequence of HCK (human) (P08631 whole entry, looked up): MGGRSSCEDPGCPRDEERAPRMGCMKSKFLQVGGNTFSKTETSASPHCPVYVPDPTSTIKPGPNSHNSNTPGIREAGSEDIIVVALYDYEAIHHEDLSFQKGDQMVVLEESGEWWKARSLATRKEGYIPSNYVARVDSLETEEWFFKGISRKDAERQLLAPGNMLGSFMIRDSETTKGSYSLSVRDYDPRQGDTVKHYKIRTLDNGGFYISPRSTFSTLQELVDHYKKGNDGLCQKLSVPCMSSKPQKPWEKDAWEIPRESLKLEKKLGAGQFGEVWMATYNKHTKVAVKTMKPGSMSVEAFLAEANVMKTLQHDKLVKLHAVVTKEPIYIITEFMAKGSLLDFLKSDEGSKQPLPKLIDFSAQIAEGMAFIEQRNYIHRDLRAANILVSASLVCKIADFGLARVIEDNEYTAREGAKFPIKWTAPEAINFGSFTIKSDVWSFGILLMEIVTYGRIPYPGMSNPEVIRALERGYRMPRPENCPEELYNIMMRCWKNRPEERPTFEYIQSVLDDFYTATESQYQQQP
Sequence of SPHK2 (human) (Q9NRA0 whole entry, looked up): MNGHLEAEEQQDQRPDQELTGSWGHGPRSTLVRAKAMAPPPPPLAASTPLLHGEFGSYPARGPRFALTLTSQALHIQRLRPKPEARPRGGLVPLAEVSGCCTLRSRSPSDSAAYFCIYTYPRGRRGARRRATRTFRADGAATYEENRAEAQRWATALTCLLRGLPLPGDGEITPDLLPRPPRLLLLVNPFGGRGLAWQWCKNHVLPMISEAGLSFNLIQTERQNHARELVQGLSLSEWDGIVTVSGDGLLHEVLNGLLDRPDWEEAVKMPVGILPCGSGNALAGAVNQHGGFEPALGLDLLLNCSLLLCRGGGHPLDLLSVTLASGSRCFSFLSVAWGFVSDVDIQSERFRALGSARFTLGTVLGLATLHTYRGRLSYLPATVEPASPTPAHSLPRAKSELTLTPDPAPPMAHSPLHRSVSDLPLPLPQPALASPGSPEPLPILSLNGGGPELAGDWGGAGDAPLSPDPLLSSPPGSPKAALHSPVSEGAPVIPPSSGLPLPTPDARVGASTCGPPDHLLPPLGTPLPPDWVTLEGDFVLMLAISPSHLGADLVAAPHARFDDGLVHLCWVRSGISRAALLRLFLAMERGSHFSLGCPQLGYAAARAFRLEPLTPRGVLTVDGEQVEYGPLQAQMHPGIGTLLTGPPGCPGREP
Sequence of MST1R (human) (Q04912 whole entry, looked up): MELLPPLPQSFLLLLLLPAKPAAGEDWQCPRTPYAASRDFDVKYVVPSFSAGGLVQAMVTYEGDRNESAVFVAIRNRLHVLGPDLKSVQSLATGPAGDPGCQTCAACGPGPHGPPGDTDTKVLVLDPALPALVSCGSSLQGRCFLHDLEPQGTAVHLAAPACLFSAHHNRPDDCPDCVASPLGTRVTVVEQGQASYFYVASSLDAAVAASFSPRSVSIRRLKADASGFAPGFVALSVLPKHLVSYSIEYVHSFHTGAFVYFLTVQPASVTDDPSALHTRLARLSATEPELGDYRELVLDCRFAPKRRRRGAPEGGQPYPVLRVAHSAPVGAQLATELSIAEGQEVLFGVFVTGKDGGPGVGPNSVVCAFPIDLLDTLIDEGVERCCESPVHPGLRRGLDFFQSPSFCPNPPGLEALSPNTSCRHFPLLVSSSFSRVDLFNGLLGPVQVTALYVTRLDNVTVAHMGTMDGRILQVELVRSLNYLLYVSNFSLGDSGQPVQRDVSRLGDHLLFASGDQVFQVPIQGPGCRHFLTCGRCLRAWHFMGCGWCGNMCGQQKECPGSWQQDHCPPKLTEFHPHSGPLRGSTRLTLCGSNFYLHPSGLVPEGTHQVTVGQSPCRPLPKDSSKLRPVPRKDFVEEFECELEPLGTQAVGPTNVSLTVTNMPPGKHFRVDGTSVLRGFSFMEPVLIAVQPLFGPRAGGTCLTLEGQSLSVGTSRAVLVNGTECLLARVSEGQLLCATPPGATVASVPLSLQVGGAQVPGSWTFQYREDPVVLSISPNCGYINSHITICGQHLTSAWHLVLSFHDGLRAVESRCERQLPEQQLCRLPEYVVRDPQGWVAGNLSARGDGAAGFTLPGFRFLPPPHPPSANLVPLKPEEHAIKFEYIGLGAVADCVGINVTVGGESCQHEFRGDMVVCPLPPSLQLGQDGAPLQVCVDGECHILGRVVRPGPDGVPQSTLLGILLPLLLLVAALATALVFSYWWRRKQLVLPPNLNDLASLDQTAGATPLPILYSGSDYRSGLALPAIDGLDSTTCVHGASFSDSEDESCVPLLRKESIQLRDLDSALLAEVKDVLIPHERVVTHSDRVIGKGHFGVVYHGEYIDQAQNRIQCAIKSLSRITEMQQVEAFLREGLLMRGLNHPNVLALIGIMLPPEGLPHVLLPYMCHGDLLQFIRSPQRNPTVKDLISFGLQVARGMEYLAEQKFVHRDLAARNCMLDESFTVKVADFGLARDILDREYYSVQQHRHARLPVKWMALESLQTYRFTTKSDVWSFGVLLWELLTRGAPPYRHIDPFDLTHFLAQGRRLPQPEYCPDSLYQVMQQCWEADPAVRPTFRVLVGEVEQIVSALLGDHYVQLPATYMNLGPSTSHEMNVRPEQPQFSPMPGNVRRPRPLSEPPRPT
Sequence of TSSK3 (human) (Q96PN8 whole entry, looked up): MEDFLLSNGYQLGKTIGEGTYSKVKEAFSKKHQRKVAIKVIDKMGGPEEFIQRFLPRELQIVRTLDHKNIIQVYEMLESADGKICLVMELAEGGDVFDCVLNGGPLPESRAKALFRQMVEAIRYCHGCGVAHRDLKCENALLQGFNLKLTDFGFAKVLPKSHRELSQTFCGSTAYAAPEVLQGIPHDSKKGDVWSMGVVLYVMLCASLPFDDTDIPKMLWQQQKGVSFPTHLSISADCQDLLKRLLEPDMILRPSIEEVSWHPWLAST

inhibition ([1]; compound 0.02 µM): -2.3%
inhibition ([1]; compound 0.2 µM): 2.8%
inhibition ([2]; compound 0.02 µM): 4.8%
inhibition ([2]; compound 0.2 µM): 2.6%
inhibition ([3]; compound 0.02 µM): 76.8%
inhibition ([3]; compound 0.2 µM): 98.7%
inhibition ([4]; compound 0.02 µM): -5.6%
inhibition ([4]; compound 0.2 µM): -5.6%
inhibition ([5]; compound 0.02 µM): 4.9%
inhibition ([5]; compound 0.2 µM): 10.8%
inhibition ([6]; compound 0.02 µM): 0.6%
inhibition ([6]; compound 0.2 µM): 12.5%
inhibition ([7]; compound 0.02 µM): 1.7%
inhibition ([7]; compound 0.2 µM): -0.9%
inhibition ([8]; compound 0.02 µM): -2.9%
inhibition ([8]; compound 0.2 µM): -3.6%
inhibition ([9]; compound 0.02 µM): 10%
inhibition ([9]; compound 0.2 µM): 9.8%
inhibition ([10]; compound 0.02 µM): 3.6%
inhibition ([10]; compound 0.2 µM): 5.9%
inhibition ([11]; compound 0.02 µM): 8.9%
inhibition ([11]; compound 0.2 µM): 3.7%
inhibition ([12]; compound 0.02 µM): 6.4%
inhibition ([12]; compound 0.2 µM): 2.8%
inhibition ([13]; compound 0.02 µM): -5.4%
inhibition ([13]; compound 0.2 µM): -3.5%
inhibition ([14]; compound 0.02 µM): 1% and -0.2%
inhibition ([14]; compound 0.2 µM): -3% and -3.9%
inhibition ([15]; compound 0.02 µM): 13.7%
inhibition ([15]; compound 0.2 µM): 35.9%
inhibition ([16]; compound 0.02 µM): 0.4%
inhibition ([16]; compound 0.2 µM): 21.1%
inhibition ([17]; compound 0.02 µM): -2.2%
inhibition ([17]; compound 0.2 µM): 2.7%
inhibition ([18]; compound 0.02 µM): -1.7%
inhibition ([18]; compound 0.2 µM): 3.3%
inhibition ([19]; compound 0.02 µM): 2.2%
inhibition ([19]; compound 0.2 µM): 7.5%
inhibition ([20]; compound 0.02 µM): 8.4%
inhibition ([20]; compound 0.2 µM): 7.1%
inhibition ([21]; compound 0.02 µM): 6.7%
inhibition ([21]; compound 0.2 µM): 5.5%
inhibition ([22]; compound 0.02 µM): 0.7%
inhibition ([22]; compound 0.2 µM): 0.8%
inhibition ([23]; compound 0.02 µM): -0.3%
inhibition ([23]; compound 0.2 µM): -2.4%
inhibition ([24]; compound 0.02 µM): 0.4%
inhibition ([24]; compound 0.2 µM): -0.4%
inhibition ([25]; compound 0.02 µM): -4.7%
inhibition ([25]; compound 0.2 µM): -3.5%
inhibition ([26]; compound 0.02 µM): -0.1%
inhibition ([26]; compound 0.2 µM): -0.5%
inhibition ([27]; compound 0.02 µM): 5.6%
inhibition ([27]; compound 0.2 µM): 34.5%
inhibition ([28]; compound 0.02 µM): 26.6%
inhibition ([28]; compound 0.2 µM): 34.9%
inhibition ([29]; compound 0.02 µM): 8.5%
inhibition ([29]; compound 0.2 µM): 1.9%
inhibition ([30]; compound 0.02 µM): 6.9%
inhibition ([30]; compound 0.2 µM): -0.1%
inhibition ([31]; compound 0.02 µM): -1%
inhibition ([31]; compound 0.2 µM): -2.5%
inhibition ([32]; compound 0.02 µM): 1.4%
inhibition ([32]; compound 0.2 µM): -1.5%
inhibition ([33]; compound 0.02 µM): 1%
inhibition ([33]; compound 0.2 µM): 6%
inhibition ([34]; compound 0.02 µM): 4.7%
inhibition ([34]; compound 0.2 µM): 5.6%
Structure (SMILES): COc1cc2c(Oc3ccc4[nH]c(C)cc4c3F)ncnc2cc1OCCCN1CCCC1
